This note sets out measurements from patent US7629358B2, “Compounds useful for the treatment of diseases” (Pfizer Inc, priority 2004, dated 2009).

Data set [1] has as its target T1, human β2 adrenergic receptor (Homo sapiens, UniProt P07550).
T1 construct: expressed in transfected cells; host or cells: CHO (Chinese Hamster Ovary) cells, CHOhβ2
The data set can be described thus: cAMP Flashplate assay in CHO cells recombinantly expressing the human β2 adrenergic receptor. The format is cell-based. The note with it: CHOhβ2 cells, 1 hour incubation, data as % Isoprenaline activity. As for the experimental part: According to another alternative, the agonist potency for the β2 receptor of the compounds of the formula (1) may also be determined by the measure of the concentration of compound according to the present invention required to produce half maximal effect (EC50) for the β2 receptor.
10 mM/100% DMSO (dimethylsulfoxide) stock of compound is diluted to required top dose in 4% DMSO. This top dose is used to construct a 10-point semi-log dilution curve, all in 4% DMSO. Isoprenaline (Sigma, I-5627) was used as a standard in every experiment and for control wells on each plate. Data was expressed as % Isoprenaline response.
CHO (Chinese Hamster Ovary) cells recombinantly expressing the human β2 adrenergic receptor (from Kobilka et al., PNAS 84: 46-50, 1987 and Bouvier et al., Mol Pharmacol 33: 133-139 1988 CHOhβ2) were grown in Dulbeccos MEM/NUT MIX F12 (Gibco, 21331-020) supplemented with 10% foetal bovine serum (Sigma, F4135, Lot 90K8404 Exp 09/04), 2 mM glutamine (Sigma, G7513), 500 μg/ml geneticin (Sigma, G7034) and 10 μg/ml puromycin (Sigma, P8833). Cells were seeded to give about 90% confluency for testing.
25 μl/well each dose of compound was transferred into a cAMP-Flashplate® (NEN, SMP004B), with […] as basal controls and 100 nM Isoprenaline as max controls. This was diluted 1:2 by the addition of 25 μl/well PBS. Cells were trypsinised (0.25% Sigma, T4049), washed with PBS (Gibco, 14040-174) and resuspended in stimulation buffer (NEN, SMP004B) to give 1×10^6 cells/ml CHOhB2. Compounds were incubated with 50 μl/well cells for 1 hour. Cells were then lysed by the addition of 100 μl/well detection buffer (NEN, SMP004B) containing 0.18 μCi/ml ^125I-cAMP (NEN, NEX-130) and plates were incubated at room temperature for a further 2 hours. The amount of ^125I-cAMP bound to the Flashplate® was quantified using a Topcount NXT (Packard), normal counting efficiency for 1 minute. Dose-response data was expressed as % Isoprenaline activity and fitted using a four parameter sigmoid fit.

T1 sequence (P07550 whole entry): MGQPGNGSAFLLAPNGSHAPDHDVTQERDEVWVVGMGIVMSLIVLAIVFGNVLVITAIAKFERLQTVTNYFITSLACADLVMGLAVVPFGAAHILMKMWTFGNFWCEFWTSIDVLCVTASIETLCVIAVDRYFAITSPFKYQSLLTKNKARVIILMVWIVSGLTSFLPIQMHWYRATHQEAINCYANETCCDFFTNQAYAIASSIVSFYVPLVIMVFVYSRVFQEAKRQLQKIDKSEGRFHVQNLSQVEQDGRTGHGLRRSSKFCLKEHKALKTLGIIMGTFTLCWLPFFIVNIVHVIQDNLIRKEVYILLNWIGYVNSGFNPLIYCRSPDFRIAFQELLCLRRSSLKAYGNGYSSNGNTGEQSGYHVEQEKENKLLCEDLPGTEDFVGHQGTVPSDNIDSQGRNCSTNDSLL

A word on the EC50: it is the midpoint of the concentration-response curve. As to `CC(C)(Cc1cccc(C(=O)NCCc2ccccc2C(F)(F)F)c1)NC[C@H](O)c1ccc(O)c(CO)c1` [Example 102], the EC50 in data set [1] came to 100 pM.
With `CC(C)(Cc1cccc(C(=O)NCCc2cccc(F)c2)c1)NC[C@H](O)c1ccc(O)c(CO)c1` [Example 63, N-[2-(3-Fluorophenyl)ethyl]-3-[2-({(2R)-2-hydroxy-2-[4-hydroxy-3-(hydroxymethyl)phenyl]ethyl}amino)-2-methylpropyl]benzamide], in data set [1], the EC50 stood at 75 pM.
On the same count and under the same terms, with `CC(C)(Cc1cccc(CC(=O)NCc2cc(C(F)(F)F)ccc2F)c1)NC[C@H](O)c1ccc(O)c(CO)c1` [Example 24, N-[2-fluoro-5-(trifluoromethyl)benzyl]-2-{3-[2-({(2R)-2-hydroxy-2-[4-hydroxy-3-(hydroxymethyl)phenyl]ethyl}amino)-2-methylpropyl]phenyl}acetamide] the figure was 150 pM; with `CC(C)(Cc1cccc(C(=O)NCC2Cc3ccccc3C2)c1)NC[C@H](O)c1ccc(O)c(CO)c1` [Example 66], 1160 pM.
Still for that read-out and setting: with `Cc1cccc(CCNC(=O)c2cccc(CC(C)(C)NC[C@H](O)c3ccc(O)c(CO)c3)c2)n1` [Example 88] the figure was 434 pM; with `CC(C)(Cc1cccc(C(=O)NCCC23CC4CC(CC(C4)C2)C3)c1)NC[C@H](O)c1ccc(O)c(CO)c1` [Example 114], 134 pM.
Consider `C[C@H](Cc1cccc(CC(=O)NC2CCCCCC2)c1)NC[C@H](O)c1ccc(O)c(CO)c1` [Example 1, N-cycloheptyl-2-{3-[(2R)-2-({(2R)-2-hydroxy-2-[4-hydroxy-3-(hydroxymethyl)phenyl]ethyl}amino)propyl]phenyl}acetamide], for which, in data set [1], the EC50 is 143 pM.
Turning to `C[C@H](Cc1cccc(CC(=O)N(C)CCC2CCCCC2)c1)NC[C@H](O)c1ccc(O)c(CO)c1` [Example 16, N-(2-cyclohexylethyl)-2-{3-[(2R)-2-({(2R)-2-hydroxy-2-[4-hydroxy-3-(hydroxymethyl)phenyl]ethyl}amino)propyl]phenyl}-N-methylacetamide], the EC50 in data set [1] worked out at 874 pM.
`C[C@H](Cc1cccc(C(=O)NCc2ccc(S(N)(=O)=O)cc2)c1)NC[C@H](O)c1ccc(O)c(CO)c1` [Example 62, N-[4-(aminosulfonyl)benzyl]-3-[(2R)-2-({(2R)-2-hydroxy-2-[4-hydroxy-3-(hydroxymethyl)phenyl]ethyl}amino)propyl]benzamide]: the EC50 in data set [1] was 444 pM.
Usually melting point stands for the temperature, or range, at which the solid turns liquid. The molecule `CC(C)(Cc1cccc(C(=O)NCCc2ccc(Cl)cc2)c1)NC[C@H](O)c1ccc(O)c(CO)c1` [Example 33, N-[2-(4-chlorophenyl)ethyl]-3-{2-[(2R)-2-hydroxy-2-(4-hydroxy-3-hydroxymethyl-phenyl)ethylamino]-2-methylpropyl}benzamide] returned a melting point of 139 to 140 °C.
Regarding `C[C@H](Cc1cccc(CC(=O)NCC23CC4CC(CC(C4)C2)C3)c1)NC[C@H](O)c1ccc(O)c(CO)c1` [Example 14, N-(1-adamantylmethyl)-2-{3-[(2R)-2-({(2R)-2-hydroxy-2-[4-hydroxy-3-(hydroxymethyl)phenyl]ethyl}amino)propyl]phenyl}acetamide], in data set [1], the EC50 stood at 64 pM.
Regarding `CC(C)(Cc1cccc(CC(=O)N2CCc3ccccc3C2)c1)NC[C@H](O)c1ccc(O)c(CO)c1` [Example 23, 4{(1R)-2-[(2-{3-[2-(3,4-dihydroisoquinolin-2(1H)-yl)-2-oxoethyl]phenyl}-1,1-dimethylethyl)amino]-1-hydroxyethyl}-2-(hydroxymethyl)phenol], the concentration giving a half-maximal response (EC50) in data set [1] was found to be 80 pM.
Turning to `O=C(Cc1cccc(CCNC[C@H](O)c2ccc(O)c(CO)c2)c1)NCCc1ccccc1` [Example 46, 2-{3-[2-({(2R)-2-hydroxy-2-[4-hydroxy-3-(hydroxymethyl)phenyl]ethyl}amino)ethyl]phenyl}-N-(2-phenylethyl)acetamide], the 50% effective concentration (EC50) in data set [1] stood at 838 pM.
